{"source": "patent US20210189327A1", "about": "“3D […] CONSTRUCTS AND METHODS OF MAKING THEREOF” (McMaster University, priority 2019, published 2021)", "system": "MCF-7 cells", "assay": "Effect of actin cytoskeleton impairment on spheroid formation and consolidation", "type": "cell-based", "conditions": "100 nM; 1 hr pretreatment without (T-nT) or with (T-T) the same concentration during spheroid formation; 5×10^5 MCF-7 cells in large wells; P-value>0.05", "protocol": "Rapid Formation of Spheroidal Tissue Constructs. In order to form spheroidal tissue constructs, PDMS molds in the form of circular wells with spherical bottom were used. These molds were prepared by mixing PDMS and its curing agent with the ratio of 10:1 and casting it on the Poly lactic acid (PLA) master mold with negative of the required patterns. Master molds were designed using software Solidworks© and 3D printed using a Stereolithography (SLA) based 3D printer (Objet 24 Desktop 3D printer). A large and small well size were created with diameters of 4 and 2.5 mm respectively. MCF-7 (Michigan Cancer Foundation-7, a breast cancer cell line) cells were cultured in Dulbecco's Modified Eagle Medium (DMEM) (Thermofisher, high glucose) supplemented with 10% V/V fetal bovine serum (FBS) (Thermofisher, US origin) and 1% Penicillin-Streptomycin (Thermofisher, 10000 U/mL) until 70% confluent. Cells were trypsinized and detached from tissue culture flasks. Required number of cells (10^5 or 10^6) were aliquoted, precipitated using centrifugation, and resuspended in proper amount of medium (5 μL for small wells, 15 μL for large wells). The cell solution then was added to the equal amount of bovine collagen type I (Thermofisher, 5 mg/mL) and mixed to get a uniform distribution of cells. […]"}
{"compound": "C/C1=C/C(=O)O[C@@H]2C[C@@H](CC[C@H](C)/C=C\\C=C\\CC1)O[C@@](O)([C@@H]1CSC(=O)N1)C2", "note": "[latrunculin A, Latrunculin A]", "values": [{"measurement": "difference between spheroid radii after 6 hrs versus untreated control (nT-nT)", "result": "no meaningful difference"}]}
